Target: T1, Slco1a4 (Mus musculus, UniProt Q9EP96)
T1 sequence (Q9EP96 1-670): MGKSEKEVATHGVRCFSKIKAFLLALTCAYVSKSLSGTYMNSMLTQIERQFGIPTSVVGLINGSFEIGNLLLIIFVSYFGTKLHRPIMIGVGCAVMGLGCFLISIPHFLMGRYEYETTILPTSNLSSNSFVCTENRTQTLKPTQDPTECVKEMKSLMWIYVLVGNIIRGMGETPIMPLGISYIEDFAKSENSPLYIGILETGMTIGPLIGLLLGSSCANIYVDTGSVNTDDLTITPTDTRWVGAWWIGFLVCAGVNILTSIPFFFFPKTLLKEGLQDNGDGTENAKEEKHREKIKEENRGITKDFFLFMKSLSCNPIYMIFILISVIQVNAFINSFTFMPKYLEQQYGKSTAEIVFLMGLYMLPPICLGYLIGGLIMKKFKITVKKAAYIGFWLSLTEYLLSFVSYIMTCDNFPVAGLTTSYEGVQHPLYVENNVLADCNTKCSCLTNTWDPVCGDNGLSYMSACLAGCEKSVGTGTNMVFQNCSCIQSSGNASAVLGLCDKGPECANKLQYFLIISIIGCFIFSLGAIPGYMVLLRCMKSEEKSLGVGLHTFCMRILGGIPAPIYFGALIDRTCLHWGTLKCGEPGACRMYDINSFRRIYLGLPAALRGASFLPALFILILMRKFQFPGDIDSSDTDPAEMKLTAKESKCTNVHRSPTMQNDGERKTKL
Assay: Uptake by cells ectopically expressing Slco1a4 (in utero electroporation) in live mice
Assay type: in vivo
Design: FLAG; expressed in transfected cells; host or cells: cortical neurons of live mice, in utero electroporation at E14/E15
Conditions: topical cortical administration (50 μM where stated)
Protocol: IUE is performed at E14 or E15 as previously done. Briefly, timed pregnant mice are anaesthetized with ketamine/xylazine. The abdominal region is shaved, sterilized and a 3 cm midline incision is made in the skin and abdominal muscle. The uterine horns are exposed, and the lateral ventricle of each embryo is pressure injected (Picospritzer II, General Valve) with plasmid DNA (~[…] volume per embryo) at a concentration of […] followed by electroporation with tweezertrodes (50 V, 4-50 ms pulses with I s pulse interval. BTX Harvard Apparatus). The embryos are placed back in the mother womb, and the muscle and skin are sutured. Electroporated pups are aged to postnatal day 30. Imaging is performed through a craniotomy over the transfected hemisphere following dye labeling.
Briefly, animals are anaesthetized via intraperitoneal injections of ketamine/xylazine or via inhaled isoflurane. A region of the skull (3×3 mm) is gently removed with a high-speed drill and the underlying dura is removed. A small glass coverslip is placed over the skull to allow long term optical access for in vivo imaging. […]
One-month-old wild-type mice were anesthetized using a ketamine/xylazine solution at doses of 100 mg/kg and 10 mg/kg, respectively. […] Mice were kept on a heating pad at 37° C., and anesthesia was periodically monitored. […]

For COc1cc2c(c(OC)c1OC)-c1ccc(OC)c(=O)cc1C(NS(=O)(=O)c1ccc(-c3c4ccc(N(C)C)cc4[o+]c4cc(N(C)C)ccc34)c(S(=O)(=O)[O-])c1)CC2 (centres unmarked) [Compound 47, 2-(3,6-bis(dimethylamino)xanthylium-9-yl)-5-(N-(1,2,3,10-tetramethoxy-9-oxo-5,6,7,9-tetrahydrobenzo[a]heptalen-7-yl)sulfamoyl)benzenesulfonate], the “uptake by neurons ectopically expressing Slco1a4” value was “marked uptake”.
In the case of O=S(=O)([O-])c1cc(S(=O)(=O)O)ccc1C1=c2cc3c4c(c2Oc2cc(Br)ccc21)CCC[N+]=4CCC3 [Compound 1, 2-(12-bromo-1,2,3,5,6,7-hexahydrochromeno[2,3-f]pyrido[3,2,1-ij]quinolin-4-ium-9-yl)-5-sulfobenzenesulfonate], the “uptake by neurons ectopically expressing Slco1a4” value is reported as “only those cells that express SLCO1A2 or SLCO1A4 (as evidenced by the GFP fluorescence (green)) take up compound 1”.

Source: patent US20260272895A1, “METHODS AND KITS FOR DELIVERY OF COMPOUNDS INTO CELLS” (Yale University, priority 2023, published 2026)
